The test system of test [1] is Pichia kudriavzevii. In words: Antifungal activity against Candida krusei TIMM 0269 after 24 hrs by microdilution method. Type of test: functional. The conditions noted are these: TIMM 0269, 24 h.
Test [2] deals with Candida tropicalis. In words: Antifungal activity against Candida tropicalis TIMM 0313 after 24 hrs by microdilution method. Type of test: functional. The conditions noted are these: TIMM 0313, 24 h. (In broth dilution the organism is exposed to a series of concentrations in liquid medium.)
In test [3] the test system is Candida albicans. In words: Antifungal activity against Candida albicans ATCC 24433 after 24 hrs by microdilution method. Type of test: functional. The conditions noted are these: ATCC 24433, 24 h.
In test [4] the test system is Nakaseomyces glabratus. In words: Antifungal activity against Candida glabrata IFO 0622 after 24 hrs by microdilution method. To be noted: IFO 0622, 24 h. Type of test: functional.
The subject of test [5] is Aspergillus fumigatus. Put plainly: Antifungal activity against Aspergillus fumigatus ATCC 36607 after 24 hrs by microdilution method. Type of test: functional. The conditions noted are these: ATCC 36607, 24 h.
Test [6] has as its system Candida albicans. In words: Antifungal activity against Candida albicans ATCC 24433 assessed as inhibition of beta-1,6-glucan synthesis. Type of test: functional, organism-based.
Test [7] concerns Candida tropicalis. Put plainly: Antifungal activity against Candida tropicalis TIMM 0313 assessed as inhibition of beta-1,6-glucan synthesis. It counts as functional, organism-based.
In test [8] the test system is Nakaseomyces glabratus. In words: Antifungal activity against Candida glabrata IFO 0622 assessed as inhibition of beta-1,6-glucan synthesis. It counts as functional, organism-based.
For test [9], the system named is Aspergillus fumigatus. Put plainly: Antifungal activity against Aspergillus fumigatus ATCC 36607 assessed as inhibition of beta-1,6-glucan synthesis. Type of test: functional, organism-based.
For test [10], the system named is Pichia kudriavzevii. In words: Antifungal activity against Candida krusei TIMM 0269 assessed as inhibition of beta-1,6-glucan synthesis. Type of test: functional, organism-based.

Values after ≈ are worked out from the molar mass of the structure shown. Active and inactive are the calls of the source. The rule behind the calls is not given here.

In general, MIC refers to the lowest concentration found to suppress growth. A high value points to a need for much substance. Regarding `CCCCc1c(C)c(C#N)c2nc3ccccc3n2c1N1CC[C@H](N(C)C)C1`, the MIC was 0.5 µg/mL (≈ 1.33 µM) against Pichia kudriavzevii [1]; 0.5 µg/mL (≈ 1.33 µM) against Candida tropicalis [2]; greater than 128 µg/mL with Candida albicans [3]; no more than 0.125 µg/mL in the test with Nakaseomyces glabratus [4]; greater than 128 µg/mL in the test with Aspergillus fumigatus [5].

Take `CCc1c(C)c(C#N)c2nc3ccccc3n2c1NCCN(CC)CC`: the MIC against Pichia kudriavzevii [1] was 4 µg/mL (≈ 11.4 µM); in the test with Candida tropicalis [2] it was greater than 128 µg/mL; against Candida albicans [3], greater than 128 µg/mL; in the test on Nakaseomyces glabratus [4], 1 µg/mL (≈ 2.86 µM); in the test on Aspergillus fumigatus [5] it was greater than 128 µg/mL.

Take `Cc1c(F)c(N2CC[C@H](N(C)C)C2)n2c(nc3ccccc32)c1C#N`: the MIC in the test with Pichia kudriavzevii [1] is 16 µg/mL (≈ 47.4 µM); in the test with Candida tropicalis [2] it was greater than 128 µg/mL; in the test on Candida albicans [3], greater than 128 µg/mL; with Nakaseomyces glabratus [4], 4 µg/mL (≈ 11.9 µM); in the test on Aspergillus fumigatus [5], greater than 128 µg/mL.

Regarding `CCc1c(C)c(C#N)c2nc3ccccc3n2c1N1CC[C@@H](N(C)C)C1`, the MIC is 16 µg/mL (≈ 46 µM) against Pichia kudriavzevii [1]; 64 µg/mL (≈ 184 µM) in the test on Candida tropicalis [2]; greater than 128 µg/mL in the test with Candida albicans [3]; 1 µg/mL (≈ 2.88 µM) in the test on Nakaseomyces glabratus [4]; greater than 128 µg/mL against Aspergillus fumigatus [5].

Regarding `CN(C)[C@H]1CCN(c2c(-c3ccccc3)cc(C#N)c3nc4ccccc4n23)C1`, the MIC was 2 µg/mL (≈ 5.24 µM) in the test with Pichia kudriavzevii [1]; 8 µg/mL (≈ 21 µM) in the test on Candida tropicalis [2]; greater than 128 µg/mL with Candida albicans [3]; no more than 0.125 µg/mL against Nakaseomyces glabratus [4]; greater than 128 µg/mL against Aspergillus fumigatus [5].

For the compound `CCc1c(C)c(C#N)c2nc3ccccc3n2c1NCCCN(C)C`, the MIC in the test with Pichia kudriavzevii [1], with Candida tropicalis [2], against Candida albicans [3], in the test on Nakaseomyces glabratus [4] and in the test with Aspergillus fumigatus [5] was greater than 128 µg/mL throughout.

For the compound `CCc1c(C)c(C#N)c2nc3ccccc3n2c1N1CC[C@H](N(C)C)C1`, the MIC with Pichia kudriavzevii [1] is 2 µg/mL (≈ 5.76 µM); with Candida tropicalis [2], 32 µg/mL (≈ 92.1 µM); against Candida albicans [3] it was greater than 128 µg/mL; in the test on Nakaseomyces glabratus [4] it was 0.5 µg/mL (≈ 1.44 µM); against Aspergillus fumigatus [5], greater than 128 µg/mL.

In the case of `CCc1c(C)c(C#N)c2nc3ccccc3n2c1N1CCC(N(C)C)CC1`, the MIC in the test on Pichia kudriavzevii [1], against Candida tropicalis [2], against Candida albicans [3], in the test with Nakaseomyces glabratus [4] and in the test with Aspergillus fumigatus [5] was greater than 128 µg/mL each time.

In the case of `CCCNc1c(CC)c(C)c(C#N)c2nc3ccccc3n12`, the MIC against Pichia kudriavzevii [1], against Candida tropicalis [2], in the test with Candida albicans [3], in the test on Nakaseomyces glabratus [4] and in the test on Aspergillus fumigatus [5] was greater than 128 µg/mL each time.

As to `OC(Cn1cncn1)(Cn1cncn1)c1ccc(F)cc1F` [FLUCONAZOLE], the MIC is 16 µg/mL (≈ 52.2 µM) with Pichia kudriavzevii [1]; 0.25 µg/mL (≈ 0.816 µM) against Candida tropicalis [2]; 0.25 µg/mL (≈ 0.816 µM) in the test on Candida albicans [3]; 2 µg/mL (≈ 6.53 µM) against Nakaseomyces glabratus [4]; greater than 64 µg/mL in the test on Aspergillus fumigatus [5].

As for `CCc1c(C)c(C#N)c2nc3ccccc3n2c1N1CCCC1`, the MIC in the test on Pichia kudriavzevii [1], with Candida tropicalis [2], in the test on Candida albicans [3], in the test with Nakaseomyces glabratus [4] and in the test on Aspergillus fumigatus [5] was greater than 64 µg/mL in each case.

For `CCc1c(C)c(C(N)=O)c2nc3ccccc3n2c1NCCN(C)CC`, the MIC with Pichia kudriavzevii [1], in the test with Candida tropicalis [2], against Candida albicans [3], with Nakaseomyces glabratus [4] and against Aspergillus fumigatus [5] was greater than 128 µg/mL each time.

As for `Cc1cc(N2CC[C@H](N(C)C)C2)n2c(nc3ccccc32)c1C#N`, the MIC in the test on Pichia kudriavzevii [1] was 32 µg/mL (≈ 100 µM); against Candida tropicalis [2] it was greater than 128 µg/mL; with Candida albicans [3] it was greater than 128 µg/mL; in the test on Nakaseomyces glabratus [4] it was 8 µg/mL (≈ 25 µM); with Aspergillus fumigatus [5], greater than 128 µg/mL.

Take `CCc1c(C)c(C#N)c2nc3ccccc3n2c1NCCN`: the MIC against Pichia kudriavzevii [1] was 32 µg/mL (≈ 109 µM); against Candida tropicalis [2], greater than 128 µg/mL; against Candida albicans [3], greater than 128 µg/mL; with Nakaseomyces glabratus [4], 4 µg/mL (≈ 13.6 µM); in the test with Aspergillus fumigatus [5], greater than 128 µg/mL.

In the case of `CC(=O)OCCc1c(C)c(C#N)c2nc3ccccc3n2c1N1CC[C@H](N(C)C)C1`, the minimum inhibitory concentration (MIC) is 4 µg/mL (≈ 9.86 µM) with Pichia kudriavzevii [1]; 16 µg/mL (≈ 39.5 µM) in the test with Candida tropicalis [2]; greater than 128 µg/mL against Candida albicans [3]; 1 µg/mL (≈ 2.47 µM) against Nakaseomyces glabratus [4]; greater than 128 µg/mL in the test on Aspergillus fumigatus [5].

In the case of `Cc1c(CCO)c(N2CC[C@H](N(C)C)C2)n2c(nc3ccccc32)c1C#N`, the MIC against Pichia kudriavzevii [1] was 16 µg/mL (≈ 44 µM); in the test on Candida tropicalis [2], greater than 128 µg/mL; in the test with Candida albicans [3], greater than 128 µg/mL; against Nakaseomyces glabratus [4] it was 32 µg/mL (≈ 88 µM); in the test on Aspergillus fumigatus [5], greater than 128 µg/mL.

With `CCc1c(C)c(C#N)c2nc3ccccc3n2c1N1CCN(C)CC1`, the MIC in the test with Pichia kudriavzevii [1], against Candida tropicalis [2], against Candida albicans [3], against Nakaseomyces glabratus [4] and in the test on Aspergillus fumigatus [5] was greater than 32 µg/mL each time.

In the case of `Cc1c(-c2ccccc2)c(N2CC[C@H](N(C)C)C2)n2c(nc3ccccc32)c1C#N`, the MIC against Pichia kudriavzevii [1] was no more than 0.125 µg/mL; in the test with Candida tropicalis [2] it was 0.5 µg/mL (≈ 1.26 µM); with Candida albicans [3], greater than 128 µg/mL; against Nakaseomyces glabratus [4], no more than 0.125 µg/mL; in the test on Aspergillus fumigatus [5], greater than 128 µg/mL. The inhibition result in the test on Candida albicans [6], with Candida tropicalis [7], with Nakaseomyces glabratus [8], in the test with Aspergillus fumigatus [9] and with Pichia kudriavzevii [10] was “Active” in each case.

With `CCc1c(-c2ccccc2)c(C#N)c2nc3ccccc3n2c1N1CC[C@H](N(C)C)C1`, the MIC in the test with Pichia kudriavzevii [1], with Candida tropicalis [2], against Candida albicans [3], in the test on Nakaseomyces glabratus [4] and against Aspergillus fumigatus [5] was greater than 128 µg/mL throughout.

Source of the values: ChEMBL document CHEMBL1177777, “Novel pyridobenzimidazole derivatives exhibiting antifungal activity by the inhibition of beta-1,6-glucan synthesis” (2010).
